Test results as given in patent EP1304333A2, “6,7-Oxygenated steroids and uses related thereto” (Inflazyme Pharmaceuticals, Ltd., priority 1996, dated 1998).

Assays:
isolated trachea = assay: Allergen (OA)-induced contraction of isolated trachea from sensitized guinea pigs; set-up: species or system guinea pig; conditions: Study 3, 30 µM compound
Procedure: The effects of a number of the compounds described herein on allergen-induced bronchoconstriction were evaluated for anti-asthma activity. The ability of a compound to inhibit allergen-induced decreases in lung function in sensitized guinea pigs in response to antigen-challenge is indicative of anti-asthma activity. In particular, the model system is useful in the evaluation of the potential effects of a compound in the treatment of the early asthmatic reaction (EAR) when severe bronchoconstriction occurs.
Guinea pigs were exposed to a nebulized solution of 1% ovalbumin (OA) in saline for 15 min. […] Tracheal rings were prepared and bathed in Krebs-Henseleit solution at 37°C and aerated with 5% CO2 in O2. Tissues were suspended under a resting tension of 2 g and isometric contractions were measured using force-displacement transducers coupled to a polygraph. Tissues were incubated with each compound or 0.1% dimethylsulfoxide (as a control) for 20 min, after which increasing concentrations of OA (0.001 - 100 µg/ml) were added to the tissue. After the final concentration of OA was added and the response was recorded, the tissues were stimulated with 100 µM methacholine which caused maximum contraction of the trachea. The magnitude of the contraction induced by OA in the presence of each compound was expressed as a percentage of the maximum contraction obtained using methacholine (100 µM).

sensitized guinea pigs = assay: Allergen-induced changes in lung resistance and lung compliance in vivo; set-up: species or system guinea pig; conditions: 50 µg/kg inhalation
Procedure: In addition, the effect of compounds of the invention on lung function in vivo was determined in sensitized animals as follows: • Female Cam Hartley guinea pigs (350-400 g) are sensitized to ovalbumin by exposure of the guinea pigs to a nebulized solution of 1% ovalbumin in saline for 15 minutes. After 10-12 days, the animals are found to be acutely sensitized to the allergen (ovalbumin). Animals are treated by oral gavage, under light halothane anesthesia, with 300 µl polyethyleneglycol-200 (PEG) or 5 mg/Kg of test compound in 300 µl of PEG. Animals are treated once daily for 4 days with the final dose administered 2 hours prior to allergen challenge. Alternatively, compounds were delivered by inhalation, using a Hudson nebulizer driven by 6psi oxygen, providing a single dose of 50 µg/Kg 20 min prior to challenge.
An animal is anaesthetized using ketamine ([…]; i.p.) and xylazine (10 mg/Kg; i.p.) and 1% halothane during the surgical procedure. A tracheostomy is performed and a water-filled esophageal cannula is inserted prior to positioning the animal in a body plethysmograph. The tracheal cannula is attached to a fixed tracheal cannula in the plethysmograph. Cardiac function is monitored using electrocardiography. The animal is paralyzed using pancuronium bromide (0.8 mg/Kg; i.m.) and ventilated with 3 ml tidal breaths using a Harvard small animal ventilator, at a frequency of 60 breaths per minute. Pulmonary resistance and dynamic lung compliance data are obtained from volume, flow and transpulmonary pressure signals using multipoint analysis.
Pulmonary function is continually monitored throughout the experiment and measurements of lung resistance and lung compliance are made at various time-points (e.g., 0, 1, 2, 3, 4, 5, 10, 20 and 30 min) following antigen challenge. Data is collected on a computer-linked physiological measurement system using DIREC Physiological recording software and analyzed using ANADAT software designed for lung mechanics measurements. This software was obtained from RHT-InfoDat Inc., Montreal, Quebec, Canada.
Once baseline resistance and compliance measurements are obtained, the animal is challenged with 6 breaths of saline. After 10 minutes, during which time no alterations in lung function should occur, the animal is challenged with 6 breaths of 2 or 3% ovalbumin in saline (as the antigen stimulus). Saline and antigen are delivered in each breath using a Hudson nebulizer.

[1] = test system: sensitized Brown Norway rats; assay: Allergen-induced lung inflammation (inflammatory cells in lung lavage fluid); format: in vivo, rat; conditions: 5 mg/kg/day for 4 days, p.o.; OA challenge; lavage 48 hours after challenge
From the text: The ability of a compound to inhibit the allergen-induced accumulation of inflammatory cells such as eosinophils and neutrophils in the lavage fluid obtained from sensitized animals is indicative of anti-asthma activity. In particular, the model system is useful in the evaluation of the effects of compounds in the treatment of the late-phase response of asthma, when lung inflammation and the second phase of bronchoconstriction is apparent.
Male Brown Norway rats (200-250 g) are sensitized to ovalbumin by an intraperitoneal injection of 1 mg ovalbumin and 100 mg aluminum hydroxide in 1 ml of sterile saline. After 21 days the animals are found to be sensitized to ovalbumin. Animals are treated with drug or vehicle (0.3 ml PEG-200) once daily for 4 days by oral gavage. The animals are challenged by exposure, for a period of 60 minutes, to nebulized solution of 0.5% ovalbumin in saline generated using a Devillbis nebulizer. The final dose of drug is given 24 hours after challenge. Forty eight hours after challenge the animals are euthanized by an overdose of halothane and the lungs are lavaged with 7 x 2 mLs of sterile saline (room temperature). The recovered lavage fluid is placed on ice and centrifuged at 1200 rpm to separate the cells from the supernatant. The cells are exposed briefly to Tris/ammonium chloride, pH 7.3 to remove any red cells, and washed in phosphate buffered saline. Cytospins of each cell sample are prepared and stained for the presence of cells containing peroxidase and for the determination of the numbers of eosinophils and neutrophils. The numbers of inflammatory cells are expressed as a percentage of the total number of cells recovered in the lavage fluid.

[2] = test system: Ascaris suum sensitized sheep; assay: Allergic sheep model of asthma (specific lung resistance, hyperresponsiveness to carbachol); format: in vivo; conditions: 400 µg/kg 30 min prior to and 4 hrs after challenge, inhalation; -0.5 hr
Procedure: The model is conscious, where the animals are breathing spontaneously, allowing measurement of airways bronchoconstriction and acute airway hyperresponsiveness.
Sheep which were naturally sensitized to Ascaris suum (30-40 Kg) were intubated with an endotracheal tube and a balloon catheter, positioned in the lower esophagus. Pleural pressure was estimated with the esophageal catheter, while later pressure was measured with a side-hole catheter advanced through and positioned distal to the tip of the endotracheal tube. Transpulmonary pressure differences between the trachea and pleural pressures were measured with a differential pressure transducer catheter system.
The proximal end of the endotracheal tube was connected to a Fleisch pneumotachograph in order to measure flow changes. Pulmonary resistance (RL) was calculated from pressure measurements of transpulmonary pressure, respiratory volume (from digital integration of the flow signal) and flow by the mid-flow technique. SRL was calculated as RL·Vtg (Vtg=thoracic gas volume).
Aerosols generated using a disposable nebulizer, were directed into a T-piece connected to a Harvard respirator and the tracheal tube in series. […]
Specific lung resistance (SRL) was measured every 60 min for 8 hours after antigen challenge. Airways hyperresponsiveness to carbachol was measured 24 hours after the initial challenge.

3α,6α,7β-trihydroxy-17(20)-pregnene [Compound 330]
percentage contraction compared to 100µM methacholine (100%) (isolated trachea; 0.001 µg/ml OA): 0% | percentage contraction compared to 100µM methacholine (100%) (isolated trachea; 0.01 µg/ml OA): 1.90% | percentage contraction compared to 100µM methacholine (100%) (isolated trachea; 0.1 µg/ml OA): 9.00% | percentage contraction compared to 100µM methacholine (100%) (isolated trachea; 1 µg/ml OA): 17.5% | percentage contraction compared to 100µM methacholine (100%) (isolated trachea; 10 µg/ml OA): 26.0% | percentage contraction compared to 100µM methacholine (100%) (isolated trachea; 100 µg/ml OA): 30.0% | Lung Compliance (sensitized guinea pigs; 1 min after challenge): 0.349±0.059 ml/cm H2O | Lung Resistance (sensitized guinea pigs; 1 min after challenge): 0.382±0.033 cm H2O/ml/sec | Lung Compliance (sensitized guinea pigs; 2 min after challenge): 0.213±0.046 ml/cm H2O | Lung Resistance (sensitized guinea pigs; 2 min after challenge): 0.420±0.044 cm H2O/ml/sec | Lung Compliance (sensitized guinea pigs; 3 min after challenge): 0.176±0.045 ml/cm H2O | Lung Resistance (sensitized guinea pigs; 3 min after challenge): 0.420±0.051 cm H2O/ml/sec | Lung Compliance (sensitized guinea pigs; 4 min after challenge): 0.145±0.046 ml/cm H2O | Lung Resistance (sensitized guinea pigs; 4 min after challenge): 0.455±0.047 cm H2O/ml/sec | Lung Compliance (sensitized guinea pigs; 5 min after challenge): 0.146±0.031 ml/cm H2O | Lung Resistance (sensitized guinea pigs; 5 min after challenge): 0.446±0.124 cm H2O/ml/sec | Lung Compliance (sensitized guinea pigs; 10 min after challenge): 0.138±0.022 ml/cm H2O | Lung Resistance (sensitized guinea pigs; 10 min after challenge): 0.436±0.036 cm H2O/ml/sec | Lung Compliance (sensitized guinea pigs; 20 min after challenge): 0.193±0.054 ml/cm H2O | Lung Resistance (sensitized guinea pigs; 20 min after challenge): 0.413±0.076 cm H2O/ml/sec | Lung Compliance (sensitized guinea pigs; 30 min after challenge): 0.181±0.046 ml/cm H2O | Lung Resistance (sensitized guinea pigs; 30 min after challenge): 0.412±0.072 cm H2O/ml/sec | Lung Compliance (sensitized guinea pigs; Baseline): 0.463±0.129 ml/cm H2O | Lung Resistance (sensitized guinea pigs; Baseline): 0.300±0.025 cm H2O/ml/sec | Lung Compliance (sensitized guinea pigs; OA/10 s): 0.565±0.062 ml/cm H2O | Lung Resistance (sensitized guinea pigs; OA/10 s): 0.288±0.036 cm H2O/ml/sec | Percentage Total Cells Recovered in Lavage Fluid: Cells Stained Positive for Peroxidase [1]: 5.65 ± 2.44 % | Percentage Total Cells Recovered in Lavage Fluid: Eosinophils [1]: 1.98 ± 0.78 % | Percentage Total Cells Recovered in Lavage Fluid: Neutrophils [1]: 6.16 ± 4.54% | Specific Lung Resistance (% Baseline) [2]: 0±4 % Baseline
